Reference: the supplement of paper PMC10307832

Columns and labels:
Assay in all cases: relative viability (nuclei count vs DMSO), 5 days (fraction); higher = more cells survive
[1] = tested on: NCI-H358
Method in brief: (§1)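 Cells from lung cancer lines were seeded into 1536-well plates and, one day later, dosed by pin tool. Treatments were either a single drug or a fixed dose of an anchor drug with five library-drug doses (not always all listed) in √10 steps. After 5 days, nuclei were stained in a one-step fixation (final 0.05% Triton X-100, 1% formaldehyde, 1 ug/ml Hoechst) and counted on 4× images, and relative viability is the treated-to-vehicle nuclei ratio, as the median of duplicate plates.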

[2] = tested on: EKVX
Method in brief: as §1

[3] = tested on: NCI-H838
Method in brief: as §1

[4] = tested on: LOU-NH91
Method in brief: as §1

[5] = tested on: NCI-H2023
Method in brief: as §1

[6] = tested on: CAL-12T
Method in brief: as §1

[7] = tested on: NCI-H1651
Method in brief: as §1

[8] = tested on: NCI-H1437
Method in brief: as §1

[9] = tested on: NCI-H460
Method in brief: as §1

[10] = tested on: NCI-H1563
Method in brief: as §1

[11] = tested on: NCI-H1395
Method in brief: as §1

[12] = tested on: HCC-366
Method in brief: as §1

[13] = tested on: NCI-H441
Method in brief: as §1

[14] = tested on: BEN
Method in brief: as §1

[15] = tested on: HCC-15
Method in brief: as §1

[16] = tested on: NCI-H1734
Method in brief: as §1

[17] = tested on: NCI-H1975
Method in brief: as §1

[18] = tested on: LCLC-103H
Method in brief: as §1

[19] = tested on: NCI-H1355
Method in brief: as §1

[20] = tested on: NCI-H1755
Method in brief: as §1

[21] = tested on: NCI-H2085
Method in brief: as §1

[22] = tested on: HCC-44
Method in brief: as §1

CC(C)Oc1cc(Nc2nc(N[C@@H](C)c3ccc(F)cn3)ncc2Cl)n[nH]1 [AZ23] + C[C@]1(O)C[C@@H](c2nc(-c3ccc4ccc(-c5ccccc5)nc4c3)c3c(N)nccn32)C1 [Linsitinib] (partner 1 µM)
relative viability ([1]; first compound 0.01 µM): 0.742
relative viability ([1]; first compound 0.03162 µM): 0.771
relative viability ([1]; first compound 0.3162 µM): 0.793
relative viability ([2]; first compound 0.01 µM): 1.01
relative viability ([2]; first compound 0.03162 µM): 1.22
relative viability ([2]; first compound 0.3162 µM): 0.969
relative viability ([3]; first compound 0.01 µM): 1.02
relative viability ([3]; first compound 0.03162 µM): 1.23
relative viability ([3]; first compound 0.3162 µM): 0.945
relative viability ([4]; first compound 0.01 µM): 0.85
relative viability ([4]; first compound 0.03162 µM): 0.966
relative viability ([4]; first compound 0.3162 µM): 0.917
relative viability ([5]; first compound 0.03162 µM): 0.666
relative viability ([5]; first compound 0.3162 µM): 0.731
relative viability ([6]; first compound 0.01 µM): 0.551
relative viability ([6]; first compound 0.03162 µM): 0.724
relative viability ([6]; first compound 0.3162 µM): 0.861
relative viability ([7]; first compound 0.01 µM): 0.691
relative viability ([7]; first compound 0.03162 µM): 1
relative viability ([7]; first compound 0.3162 µM): 1.18
relative viability ([8]; first compound 0.01 µM): 1.07
relative viability ([8]; first compound 0.03162 µM): 1.18
relative viability ([8]; first compound 0.3162 µM): 1.28
relative viability ([9]; first compound 0.01 µM): 0.366
relative viability ([9]; first compound 0.03162 µM): 0.933
relative viability ([9]; first compound 0.3162 µM): 0.851
relative viability ([10]; first compound 0.01 µM): 1.14
relative viability ([10]; first compound 0.03162 µM): 1.19
relative viability ([10]; first compound 0.3162 µM): 1.08
relative viability ([11]; first compound 0.03162 µM): 1.09
relative viability ([11]; first compound 0.3162 µM): 0.975
relative viability ([12]; first compound 0.01 µM): 0.596
relative viability ([12]; first compound 0.03162 µM): 0.902
relative viability ([12]; first compound 0.3162 µM): 0.56
relative viability ([13]; first compound 0.01 µM): 0.608
relative viability ([13]; first compound 0.03162 µM): 0.622
relative viability ([13]; first compound 0.3162 µM): 0.591
relative viability ([14]; first compound 0.01 µM): 1
relative viability ([14]; first compound 0.03162 µM): 0.966
relative viability ([14]; first compound 0.3162 µM): 0.977
relative viability ([15]; first compound 0.01 µM): 0.916
relative viability ([15]; first compound 0.03162 µM): 0.906
relative viability ([15]; first compound 0.3162 µM): 0.875
relative viability ([16]; first compound 0.01 µM): 0.921
relative viability ([16]; first compound 0.03162 µM): 0.814
relative viability ([16]; first compound 0.3162 µM): 0.894
relative viability ([17]; first compound 0.01 µM): 1.13
relative viability ([17]; first compound 0.03162 µM): 1.06
relative viability ([17]; first compound 0.3162 µM): 0.972
relative viability ([18]; first compound 0.01 µM): 1.07
relative viability ([18]; first compound 0.03162 µM): 1.03
relative viability ([18]; first compound 0.3162 µM): 1.15
relative viability ([19]; first compound 0.01 µM): 0.909
relative viability ([19]; first compound 0.03162 µM): 0.784
relative viability ([19]; first compound 0.3162 µM): 0.724
relative viability ([20]; first compound 0.01 µM): 1.13
relative viability ([20]; first compound 0.03162 µM): 1.03
relative viability ([20]; first compound 0.3162 µM): 1.06
relative viability ([21]; first compound 0.01 µM): 1.03
relative viability ([21]; first compound 0.03162 µM): 1.02
relative viability ([21]; first compound 0.3162 µM): 0.761
relative viability ([22]; first compound 0.01 µM): 0.684
relative viability ([22]; first compound 0.03162 µM): 0.74
relative viability ([22]; first compound 0.3162 µM): 0.632

CC(C)Oc1cc(Nc2nc(N[C@@H](C)c3ccc(F)cn3)ncc2Cl)n[nH]1 [AZ23] + Cc1nc(NC(=O)N2CCC[C@H]2C(N)=O)sc1-c1ccnc(C(C)(C)C(F)(F)F)c1 [Alpelisib] (partner 2 µM)
relative viability ([1]; first compound 0.01 µM): 0.937
relative viability ([1]; first compound 0.03162 µM): 0.855
relative viability ([1]; first compound 0.3162 µM): 0.928
relative viability ([2]; first compound 0.01 µM): 0.923
relative viability ([2]; first compound 0.03162 µM): 1.07
relative viability ([2]; first compound 0.3162 µM): 0.978
relative viability ([3]; first compound 0.01 µM): 0.968
relative viability ([3]; first compound 0.03162 µM): 1.25
relative viability ([3]; first compound 0.3162 µM): 0.998
relative viability ([4]; first compound 0.01 µM): 0.676
relative viability ([4]; first compound 0.03162 µM): 0.775
relative viability ([4]; first compound 0.3162 µM): 0.699
relative viability ([5]; first compound 0.03162 µM): 0.675
relative viability ([5]; first compound 0.3162 µM): 0.623
relative viability ([6]; first compound 0.01 µM): 0.787
relative viability ([6]; first compound 0.03162 µM): 1.26
relative viability ([6]; first compound 0.3162 µM): 1.28
relative viability ([7]; first compound 0.01 µM): 0.773
relative viability ([7]; first compound 0.03162 µM): 1.05
relative viability ([7]; first compound 0.3162 µM): 1.16
relative viability ([8]; first compound 0.01 µM): 0.949
relative viability ([8]; first compound 0.03162 µM): 1.15
relative viability ([8]; first compound 0.3162 µM): 1.06
relative viability ([9]; first compound 0.01 µM): 0.429
relative viability ([9]; first compound 0.03162 µM): 0.598
relative viability ([9]; first compound 0.3162 µM): 0.48
relative viability ([10]; first compound 0.01 µM): 0.895
relative viability ([10]; first compound 0.03162 µM): 0.961
relative viability ([10]; first compound 0.3162 µM): 0.899
relative viability ([11]; first compound 0.03162 µM): 1.06
relative viability ([11]; first compound 0.3162 µM): 1.08
relative viability ([12]; first compound 0.01 µM): 0.391
relative viability ([12]; first compound 0.03162 µM): 0.517
relative viability ([12]; first compound 0.3162 µM): 0.334
relative viability ([13]; first compound 0.01 µM): 1.05
relative viability ([13]; first compound 0.03162 µM): 0.621
relative viability ([13]; first compound 0.3162 µM): 0.576
relative viability ([14]; first compound 0.01 µM): 1.02
relative viability ([14]; first compound 0.03162 µM): 1.18
relative viability ([14]; first compound 0.3162 µM): 1.09
relative viability ([15]; first compound 0.01 µM): 1.13
relative viability ([15]; first compound 0.03162 µM): 0.857
relative viability ([15]; first compound 0.3162 µM): 0.877
relative viability ([16]; first compound 0.01 µM): 0.683
relative viability ([16]; first compound 0.03162 µM): 0.772
relative viability ([16]; first compound 0.3162 µM): 0.649
relative viability ([17]; first compound 0.01 µM): 0.696
relative viability ([17]; first compound 0.03162 µM): 0.718
relative viability ([17]; first compound 0.3162 µM): 0.705
relative viability ([18]; first compound 0.01 µM): 0.953
relative viability ([18]; first compound 0.03162 µM): 1.01
relative viability ([18]; first compound 0.3162 µM): 0.996
relative viability ([19]; first compound 0.01 µM): 0.876
relative viability ([19]; first compound 0.03162 µM): 0.873
relative viability ([19]; first compound 0.3162 µM): 0.782
relative viability ([20]; first compound 0.01 µM): 1.12
relative viability ([20]; first compound 0.03162 µM): 1.05
relative viability ([20]; first compound 0.3162 µM): 1.09
relative viability ([21]; first compound 0.01 µM): 1
relative viability ([21]; first compound 0.03162 µM): 0.999
relative viability ([21]; first compound 0.3162 µM): 0.938
relative viability ([22]; first compound 0.01 µM): 0.858
relative viability ([22]; first compound 0.03162 µM): 0.915
relative viability ([22]; first compound 0.3162 µM): 0.871
